Source: PubChem BioAssay AID256 (DTP/NCI, 2004)
Several values for one entry are separate records, joined by “and”; a condition that tells them apart may be missing. Identical values can stand only once. Inconclusive results and toxic doses are left out. Residues, ends and D or L forms follow the SMILES beside them.

Tested on: CD2F1 mice, L1210 leukemia ip, survival T/C
Experiment: NCI In Vivo Anticancer Drug Screen. Data for tumor model L1210 Leukemia (intraperitoneal) in CD2F1 (CDF1) mice
Conditions: higher = longer survival
Summary of the method: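 Antitumor effect is scored in animals hosting a serially transplanted tumor. Values compare compound-dosed animals against vehicle-only controls as a simple quotient.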

[1] = endpoint: mean survival time, dose: 50.0 mg/kg/injection, schedule: Q01DX009 (ip), vehicle: saline with Tween-80
[2] = endpoint: mean survival time, dose: 100.0 mg/kg/injection, schedule: Q01DX009 (ip), vehicle: saline with Tween-80
[3] = endpoint: mean survival time, dose: 200.0 mg/kg/injection, schedule: Q01DX009 (ip), vehicle: saline with Tween-80
[4] = endpoint: mean survival time, dose: 100.0 mg/kg/injection, schedule: Q01DX001 (ip), vehicle: saline with Tween-80
[5] = endpoint: mean survival time, dose: 200.0 mg/kg/injection, schedule: Q01DX001 (ip), vehicle: saline with Tween-80
[6] = endpoint: mean survival time, dose: 400.0 mg/kg/injection, schedule: Q01DX001 (ip), vehicle: saline with Tween-80
[7] = endpoint: mean survival time, dose: 100.0 mg/kg/injection, schedule: Q04DX003 (ip), vehicle: saline with Tween-80
[8] = endpoint: mean survival time, dose: 200.0 mg/kg/injection, schedule: Q04DX003 (ip), vehicle: saline with Tween-80
[9] = endpoint: mean survival time, dose: 400.0 mg/kg/injection, schedule: Q01DX009 (ip), vehicle: saline with Tween-80
[10] = endpoint: mean survival time, dose: 100.0 mg/kg/injection, schedule: Q04DX003 (ip), vehicle: Klucel (hydroxypropylcellulose) (HPC)
[11] = endpoint: mean survival time, dose: 200.0 mg/kg/injection, schedule: Q04DX003 (ip), vehicle: Klucel (hydroxypropylcellulose) (HPC)

In the case of `Cc1ccc(C(=O)Nc2cccc(-n3cnc4c(=O)[nH]c(N)nc43)c2)cc1S(=O)(=O)F`, the T/C (endpoint: mean survival time, dose: 50.0 mg/kg/injection, schedule: Q04DX002 (ip), vehicle: saline with Tween-80) is reported as 90 % of control, the T/C (endpoint: mean survival time, dose: 100.0 mg/kg/injection, schedule: Q04DX002 (ip), vehicle: saline with Tween-80) is reported as 101 % of control and the T/C (endpoint: mean survival time, dose: 200.0 mg/kg/injection, schedule: Q04DX002 (ip), vehicle: saline with Tween-80) is reported as 86 % of control.

For `c1ccc(N/N=C(/N=Nc2ccc(-c3ccc(N=N/C(=N/Nc4ccccc4)c4ccccc4)cc3)cc2)c2ccccc2)cc1`, the T/C [1] was 97 % of control, the T/C [2] was 97 % of control and the T/C [3] was 102 % of control.

`COc1ccc(NC2=C(C)C(=O)C3=C(C2=O)[C@H](COC(N)=O)[C@]2(OC)[C@@H]4N[C@@H]4CN32)cc1OC` was tested, and the T/C (endpoint: median survival time, dose: 3.0 mg/kg/injection, schedule: Q01DX001 (ip), vehicle: water) was 124 % of control and 111 % of control, the T/C (endpoint: median survival time, dose: 6.0 mg/kg/injection, schedule: Q01DX001 (ip), vehicle: water) was 124 % of control and the T/C (endpoint: median survival time, dose: 24.0 mg/kg/injection, schedule: Q01DX001 (ip), vehicle: water) was 110 % of control.

With `COc1ccc(C(=C(CC(=O)O)C(=O)O)c2ccc(OC)cc2)cc1` the T/C (endpoint: mean survival time, dose: 100.0 mg/kg/injection, schedule: Q01DX001 (ip), vehicle: saline) was 98 % of control, the T/C (endpoint: mean survival time, dose: 200.0 mg/kg/injection, schedule: Q01DX001 (ip), vehicle: saline) was 98 % of control and the T/C (endpoint: mean survival time, dose: 400.0 mg/kg/injection, schedule: Q01DX001 (ip), vehicle: saline) was 101 % of control.

In the case of `CC(=O)NO`, the T/C (endpoint: median survival time, dose: 25.0 mg/kg/injection, schedule: Q03HX024 (ip), vehicle: water) is reported as 104 % of control, the T/C (endpoint: median survival time, dose: 50.0 mg/kg/injection, schedule: Q01DX009 (ip), vehicle: water) is reported as 101 % of control and the T/C (endpoint: median survival time, dose: 50.0 mg/kg/injection, schedule: Q03HX024 (ip), vehicle: water) is reported as 105 % of control. For the same molecule, the T/C (endpoint: median survival time, dose: 62.5 mg/kg/injection, schedule: Q01DX009 (ip), vehicle: saline) was 111 % of control, the T/C (endpoint: median survival time, dose: 62.5 mg/kg/injection, schedule: Q01DX009 (ip), vehicle: water) was 99 % of control and the T/C (endpoint: median survival time, dose: 100.0 mg/kg/injection, schedule: Q01DX009 (ip), vehicle: water) was 105 % of control. For the same molecule, the T/C (endpoint: median survival time, dose: 100.0 mg/kg/injection, schedule: Q03HX024 (ip), vehicle: water) was 114 % of control, the T/C (endpoint: median survival time, dose: 125.0 mg/kg/injection, schedule: Q01DX009 (ip), vehicle: saline) was 111 % of control and the T/C (endpoint: median survival time, dose: 125.0 mg/kg/injection, schedule: Q01DX009 (ip), vehicle: water) was 101 % of control. The T/C (endpoint: median survival time, dose: 250.0 mg/kg/injection, schedule: Q01DX009 (ip), vehicle: saline) was 118 % of control, the T/C (endpoint: median survival time, dose: 250.0 mg/kg/injection, schedule: Q01DX009 (ip), vehicle: water) was 111 % of control and the T/C (endpoint: median survival time, dose: 400.0 mg/kg/injection, schedule: Q01DX009 (ip), vehicle: water) was 152 % of control. For the same molecule, the T/C (endpoint: median survival time, dose: 400.0 mg/kg/injection, schedule: Q03HX024 (ip), vehicle: water) was 241 % of control, the T/C (endpoint: median survival time, dose: 500.0 mg/kg/injection, schedule: Q01DX009 (ip), vehicle: saline) was 152 % of control and the T/C (endpoint: median survival time, dose: 800.0 mg/kg/injection, schedule: Q01DX009 (ip), vehicle: water) was 173 % of control and 183 % of control. For the same molecule, the T/C (endpoint: median survival time, dose: 1000.0 mg/kg/injection, schedule: Q01DX009 (ip), vehicle: saline) was 172 % of control.

With `Clc1ccccc1/C=N/N=C/c1ccccc1Cl` the T/C [4] was 91 % of control, the T/C [5] was 90 % of control and the T/C [6] was 89 % of control.

`O=C1c2ccccc2C(=O)N1C1C=CC=CC=C1` was tested, and the T/C [2] was 95 % of control, the T/C [7] was 104 % of control and the T/C [3] was 93 % of control. The T/C [8] was 97 % of control, the T/C [9] was 96 % of control and the T/C (endpoint: mean survival time, dose: 400.0 mg/kg/injection, schedule: Q04DX003 (ip), vehicle: saline with Tween-80) was 97 % of control.

`Cc1cccc(/C=N/OCCC(C)C)n1` was tested, and the T/C [1] was 102 % of control, the T/C [2] was 96 % of control and the T/C [7] was 93 % of control. For the same molecule, the T/C [3] was 102 % of control and the T/C [8] was 89 % of control.

`ClC1C(Cl)(Cl)C1(Cl)Cl` was tested, and the T/C (endpoint: mean survival time, dose: 37.5 mg/kg/injection, schedule: Q01DX001 (ip), vehicle: saline) was 100 % of control, the T/C (endpoint: mean survival time, dose: 75.0 mg/kg/injection, schedule: Q01DX001 (ip), vehicle: saline) was 102 % of control and the T/C (endpoint: mean survival time, dose: 150.0 mg/kg/injection, schedule: Q01DX001 (ip), vehicle: saline) was 95 % of control.

For `O=C(O)C1SCCCS1`, the T/C (endpoint: mean survival time, dose: 12.5 mg/kg/injection, schedule: Q04DX002 (ip), vehicle: saline) was 105 % of control, the T/C (endpoint: mean survival time, dose: 25.0 mg/kg/injection, schedule: Q04DX002 (ip), vehicle: saline) was 94 % of control and the T/C (endpoint: mean survival time, dose: 50.0 mg/kg/injection, schedule: Q04DX002 (ip), vehicle: saline) was 94 % of control.

`O=S(=O)(O)c1ccc(N=Nc2ccc(O)cc2)cc1` was tested, and the T/C (endpoint: mean survival time, dose: 25.0 mg/kg/injection, schedule: Q04DX003 (ip), vehicle: saline with Tween-80) was 97 % of control, the T/C (endpoint: mean survival time, dose: 50.0 mg/kg/injection, schedule: Q04DX003 (ip), vehicle: saline with Tween-80) was 107 % of control and the T/C [7] was 100 % of control.

In the case of `NC(N)=NCCCC(N)C(=O)NC(CCC(=O)O)C(=O)O` (stereo not drawn) (H-Arg-Glu-OH; configuration not given here), the T/C (endpoint: mean survival time, dose: 25.0 mg/kg/injection, schedule: Q01DX009 (ip), vehicle: saline) is reported as 91 % of control, the T/C (endpoint: mean survival time, dose: 50.0 mg/kg/injection, schedule: Q01DX009 (ip), vehicle: saline) is reported as 94 % of control and the T/C (endpoint: mean survival time, dose: 100.0 mg/kg/injection, schedule: Q01DX009 (ip), vehicle: saline) is reported as 89 % of control. The T/C (endpoint: mean survival time, dose: 200.0 mg/kg/injection, schedule: Q01DX009 (ip), vehicle: saline) was 89 % of control and the T/C (endpoint: mean survival time, dose: 400.0 mg/kg/injection, schedule: Q01DX009 (ip), vehicle: saline) was 93 % of control.

In the case of `NC1CCCCC1N.O=C([O-])c1cc(S(=O)(=O)Nc2cc(S(=O)(=O)[O-])cc3cc(S(=O)(=O)[O-])cc(O)c23)ccc1[O-].[Pt+4]`, the T/C (endpoint: median survival time, dose: 0.39 mg/kg/injection, schedule: Q04DX003 (ip), vehicle: saline with Tween-80) is reported as 124 % of control, the T/C (endpoint: median survival time, dose: 1.56 mg/kg/injection, schedule: Q04DX003 (ip), vehicle: saline with Tween-80) is reported as 181 % of control and the T/C (endpoint: median survival time, dose: 3.12 mg/kg/injection, schedule: Q04DX003 (ip), vehicle: saline with Tween-80) is reported as 253 % of control and 264 % of control. For the same molecule, the T/C (endpoint: median survival time, dose: 6.25 mg/kg/injection, schedule: Q04DX003 (ip), vehicle: saline with Tween-80) was 289 % of control and 103 % of control.

For `CCn1c(COc2ccc(Br)cc2)c(COC(=O)c2cccc(Cl)c2)c2ccccc21`, the T/C [2] was 94 % of control, the T/C [3] was 92 % of control and the T/C [9] was 94 % of control.

With `O=C1Cc2ccccc2C(=O)N1` the T/C (endpoint: mean survival time, dose: 100.0 mg/kg/injection, schedule: Q01DX009 (ip), vehicle: saline sonified) was 97 % of control, the T/C (endpoint: mean survival time, dose: 200.0 mg/kg/injection, schedule: Q01DX009 (ip), vehicle: saline sonified) was 98 % of control and the T/C (endpoint: mean survival time, dose: 400.0 mg/kg/injection, schedule: Q01DX009 (ip), vehicle: saline sonified) was 89 % of control.

In the case of `COc1ccc(-c2ncn(-c3ccc(S(=O)(=O)O)cc3)c2-c2ccc(OC)cc2)cc1`, the T/C [10] is reported as 95 % of control, the T/C [11] is reported as 95 % of control and the T/C (endpoint: mean survival time, dose: 400.0 mg/kg/injection, schedule: Q04DX003 (ip), vehicle: Klucel (hydroxypropylcellulose) (HPC)) is reported as 102 % of control.

With `O/N=C1\CCCCC\C1=N/O.O/N=C1\CCCCC\C1=N/O.[Pt]` the T/C (endpoint: mean survival time, dose: 3.13 mg/kg/injection, schedule: Q04DX003 (ip), vehicle: dextrose) was 104 % of control, the T/C (endpoint: mean survival time, dose: 6.25 mg/kg/injection, schedule: Q04DX003 (ip), vehicle: dextrose) was 108 % of control and the T/C (endpoint: mean survival time, dose: 12.5 mg/kg/injection, schedule: Q04DX003 (ip), vehicle: dextrose) was 98 % of control. The T/C (endpoint: mean survival time, dose: 25.0 mg/kg/injection, schedule: Q04DX003 (ip), vehicle: dextrose) was 98 % of control and 101 % of control, the T/C (endpoint: mean survival time, dose: 50.0 mg/kg/injection, schedule: Q04DX003 (ip), vehicle: dextrose) was 95 % of control and 106 % of control and the T/C (endpoint: mean survival time, dose: 100.0 mg/kg/injection, schedule: Q04DX003 (ip), vehicle: dextrose) was 103 % of control. For the same molecule, the T/C (endpoint: mean survival time, dose: 200.0 mg/kg/injection, schedule: Q04DX003 (ip), vehicle: dextrose) was 96 % of control and 98 % of control.

With `COc1ccc(OC)c(C(=O)C=C(C(F)(F)F)C(F)(F)F)c1` the T/C (endpoint: mean survival time, dose: 100.0 mg/kg/injection, schedule: Q01DX009 (ip), vehicle: other) was 113 % of control.

With `S=c1n(Cc2ccccc2)cnc2ncnn12` the T/C [10] was 98 % of control and the T/C [11] was 111 % of control.

In the case of `ICC(CI)(CI)CI`, the T/C [4] is reported as 100 % of control, the T/C [5] is reported as 93 % of control and the T/C [6] is reported as 100 % of control.

`CCOc1ccc(N2C(=O)CSC2=S)cc1` was tested, and the T/C [1] was 95 % of control, the T/C [2] was 87 % of control and the T/C [3] was 93 % of control.

For `O=C(N/N=C/Cc1ccccc1)c1cc2ccccc2cc1O`, the T/C [2] was 101 % of control, the T/C [3] was 95 % of control and the T/C [9] was 108 % of control.
